Results: patent publication US11400059B2, “Treatment of pain and/or pain related symptoms associated with dysmenorrhea” (ALYRA BIOTECH PTY LTD, priority 2017, dated 2022)

Experiments:
[1] = molecular target: T1, Human TLR8 (Homo sapiens, UniProt Q9NR97); experiment: Human TLR antagonist screening, NF-κB SEAP reporter in HEK293 cells; type: cell-based; details: antagonist mode, test article 1 μM, +CL075 200 ng/ml, No Sample 13, Control− 1
T1 construct: expressed in transfected cells; host or cells: HEK293
T1 sequence (Q9NR97 27-1041): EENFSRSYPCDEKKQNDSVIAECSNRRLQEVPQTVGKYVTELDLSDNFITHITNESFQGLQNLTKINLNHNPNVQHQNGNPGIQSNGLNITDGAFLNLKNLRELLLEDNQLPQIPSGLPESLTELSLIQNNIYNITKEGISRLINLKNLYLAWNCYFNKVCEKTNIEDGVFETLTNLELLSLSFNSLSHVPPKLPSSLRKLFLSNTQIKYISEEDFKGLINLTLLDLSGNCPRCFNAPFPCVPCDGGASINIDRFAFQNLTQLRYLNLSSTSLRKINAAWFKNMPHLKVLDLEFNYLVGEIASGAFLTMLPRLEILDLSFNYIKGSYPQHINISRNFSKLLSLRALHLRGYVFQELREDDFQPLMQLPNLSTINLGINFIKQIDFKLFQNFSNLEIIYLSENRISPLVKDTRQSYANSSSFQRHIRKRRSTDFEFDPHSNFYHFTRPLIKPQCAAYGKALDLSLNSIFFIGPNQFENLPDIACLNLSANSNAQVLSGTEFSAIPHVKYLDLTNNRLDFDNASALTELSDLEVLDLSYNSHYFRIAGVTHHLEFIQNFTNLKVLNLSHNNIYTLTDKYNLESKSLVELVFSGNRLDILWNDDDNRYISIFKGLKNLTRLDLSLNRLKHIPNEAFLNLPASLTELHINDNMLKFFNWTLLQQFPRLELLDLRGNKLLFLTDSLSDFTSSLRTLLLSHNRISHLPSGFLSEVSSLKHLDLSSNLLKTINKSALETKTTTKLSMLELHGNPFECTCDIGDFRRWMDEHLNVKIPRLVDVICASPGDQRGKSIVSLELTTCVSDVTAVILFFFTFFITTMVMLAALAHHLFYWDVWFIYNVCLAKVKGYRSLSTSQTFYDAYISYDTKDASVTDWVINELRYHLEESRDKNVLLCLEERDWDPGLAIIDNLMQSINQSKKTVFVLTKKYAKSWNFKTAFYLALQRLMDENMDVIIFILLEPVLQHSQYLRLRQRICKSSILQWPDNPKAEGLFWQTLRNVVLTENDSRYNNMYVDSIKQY
Experimental: Toll-Like Receptor (TLR), NOD-Like Receptor (NLR) and C-Type Lectin Receptor (CLR) stimulation were tested by assessing NF-κB activation in HEK293 cells expressing a given TLR, NLR or CLR. The activity of the test articles was tested at one concentration and compared to control ligands. These steps were performed in triplicate. hTLR8: […] In a 96-well plate (200 μL total volume) containing the appropriate cells (50,000-75,000 cells/well), 20 μL of the test article or the positive control ligand was added to the wells. For the antagonist assay, the test article was incubated with the cells, at 37° C. with 5% CO2, for 30 minutes prior to the addition of the positive control ligand to the wells. The media added to the wells was designed for the detection of NF-κB induced SEAP expression. After a 16-24 hr incubation the optical density (OD) was read at 650 nm on a Molecular Devices SpectraMax 340PC absorbance detector. Fold induction (ratio of average induced value to average non-induced value) was determined for each TLR, NOD1, NOD2, Dectin-1a, Dectin-1b.

[2] = molecular target: T2, hTLR9 (Homo sapiens, UniProt Q9NR96); experiment: as above; type: cell-based; details: antagonist mode, test article 1 μM, +ODN 2006 500 ng/ml; No Sample 7, Control− 1
T2 construct: expressed in transfected cells; host or cells: HEK293
T2 sequence (Q9NR96 26-1032): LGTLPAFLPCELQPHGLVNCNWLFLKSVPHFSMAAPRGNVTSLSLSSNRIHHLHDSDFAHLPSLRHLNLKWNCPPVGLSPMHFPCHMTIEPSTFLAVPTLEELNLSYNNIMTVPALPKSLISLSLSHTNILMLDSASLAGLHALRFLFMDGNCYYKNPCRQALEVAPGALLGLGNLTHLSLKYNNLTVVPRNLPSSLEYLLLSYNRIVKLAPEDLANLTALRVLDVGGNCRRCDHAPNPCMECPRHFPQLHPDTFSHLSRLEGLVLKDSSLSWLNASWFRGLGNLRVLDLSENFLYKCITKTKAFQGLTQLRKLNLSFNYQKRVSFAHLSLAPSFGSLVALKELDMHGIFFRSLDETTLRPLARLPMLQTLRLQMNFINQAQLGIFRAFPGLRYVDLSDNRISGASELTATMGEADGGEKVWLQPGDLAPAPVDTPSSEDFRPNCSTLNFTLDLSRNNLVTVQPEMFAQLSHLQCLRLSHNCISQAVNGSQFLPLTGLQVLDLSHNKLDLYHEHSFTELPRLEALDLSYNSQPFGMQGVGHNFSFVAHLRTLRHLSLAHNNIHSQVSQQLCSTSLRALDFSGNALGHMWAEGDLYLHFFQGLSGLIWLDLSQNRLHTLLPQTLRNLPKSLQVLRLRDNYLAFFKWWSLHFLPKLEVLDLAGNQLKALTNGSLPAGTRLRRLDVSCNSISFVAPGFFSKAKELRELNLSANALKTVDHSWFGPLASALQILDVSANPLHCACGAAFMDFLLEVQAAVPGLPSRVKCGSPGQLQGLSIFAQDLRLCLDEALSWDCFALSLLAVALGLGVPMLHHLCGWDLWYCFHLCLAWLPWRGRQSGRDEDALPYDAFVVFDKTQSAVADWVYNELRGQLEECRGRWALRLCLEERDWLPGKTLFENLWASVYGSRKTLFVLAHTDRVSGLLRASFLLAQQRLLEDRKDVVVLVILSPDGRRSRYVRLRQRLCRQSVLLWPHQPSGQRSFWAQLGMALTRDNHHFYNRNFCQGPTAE
Experimental: Toll-Like Receptor (TLR), NOD-Like Receptor (NLR) and C-Type Lectin Receptor (CLR) stimulation were tested by assessing NF-κB activation in HEK293 cells expressing a given TLR, NLR or CLR. The activity of the test articles was tested at one concentration and compared to control ligands. These steps were performed in triplicate. hTLR9: CpG ODN 2006 at 1 μg/mL Antagonist: 500 ng/mL. In a 96-well plate (200 μL total volume) containing the appropriate cells (50,000-75,000 cells/well), 20 μL of the test article or the positive control ligand was added to the wells. For the antagonist assay, the test article was incubated with the cells, at 37° C. with 5% CO2, for 30 minutes prior to the addition of the positive control ligand to the wells. The media added to the wells was designed for the detection of NF-κB induced SEAP expression. After a 16-24 hr incubation the optical density (OD) was read at 650 nm on a Molecular Devices SpectraMax 340PC absorbance detector. Fold induction (ratio of average induced value to average non-induced value) was determined for each TLR, NOD1, NOD2, Dectin-1a, Dectin-1b.

SMILES	Fold Induction [1]	Fold Induction ([1]; listed as Ami)	Fold Induction [2]	Fold Induction ([1]; listed as Nor)
CN(C)CCC=C1c2ccccc2CCc2ccccc21 [Amitriptyline]	slight inhibitory effect	11	slight inhibitory effect	–
CNCCC=C1c2ccccc2CCc2ccccc21 [Nortriptyline]	slight inhibitory effect	–	slight inhibitory effect	11
